Measurements taken from the OligoGym collection.
“And” between values parts separate entries of the source, which are not always exact repeats. Equal entries are not always repeated. After the bases stand the sugars from the 5' end (letter, count) and the backbone: PS all phosphorothioate, else s phosphorothioate and o phosphodiester by linkage. Methylation of C is not given here. e = 2'-O-(2-methoxyethyl) (MOE); k = constrained ethyl (cEt); d = 2'-deoxy (DNA); m = 2'-O-methyl

Target: HSD17B13
Conditions: ASO, HepaRG

Sequence	target mRNA inhibition (1 µM)	other results
CAATCCCAACCAAACT (sugars k3 d10 k3, PS)	49%	
CCATAATCTGTGATTA (sugars k3 d10 k3, PS)	9%	
ATGGTAAGCCCCATGC (sugars k3 d10 k3, PS)	22%	
GATAGTCCATGCAAAA (sugars k3 d10 k3, PS)	64%	
ACTACATTAACACCAA (sugars k3 d10 k3, PS)	46%	
TACTTGAACAGTCTTA (sugars k3 d10 k3, PS)	48%	
GGATAGAGCACATGGC (sugars k3 d10 k3, PS)	33%	
AGAATAGAGTTGCACC (sugars k3 d9 k3 e1, PS)	58%	
TAGTCTTCAGCAAAGT (sugars kkdddddddddkekek, PS)	35%	
GCAAGGATACCTGAAA (sugars k3 d10 k3, PS)	67%	
AGAAGTATGTGAACTC (sugars k3 d10 k3, PS)	41%	
GCATTAATGCCACCCT (sugars k3 d9 k3 e1, PS)	51%	
GAAGATTAGTTAACCT (sugars k3 d10 k3, PS)	13%	
CTAAAATTGTCTAAAC (sugars kkdddddddddkekek, PS)	19%	
TTTTAGGGAGGTAGCT (sugars k3 d10 k3, PS)	39%	
TTTTTGAACCGTATTC (sugars k3 d10 k3, PS)	56%	
TGACAATGGTTGCCAC (sugars k3 d9 k3 e1, PS)	45%	
GAAGTTAGTATAGTTA (sugars kkdddddddddkekek, PS)	56%	
AGGTAGCTAATGTATG (sugars k3 d10 k3, PS)	53%	
GTAATAGGCAGTAAAG (sugars k3 d10 k3, PS)	77%	
GTGTTAGCTTTAATTT (sugars k3 d10 k3, PS)	48%	
TGTTGATATTCTGTGG (sugars kkdddddddddkekek, PS)	54%	
GTATTTCGCTACTGTA (sugars k3 d10 k3, PS)	76%	target mRNA inhibition (0.02 µM): 0%; target mRNA inhibition (0.078 µM): 0%; target mRNA inhibition (0.313 µM): 24%; target mRNA inhibition (1.25 µM): 64%; target mRNA inhibition (5 µM): 86%
TGCTGAGAAGATCGGC (sugars k3 d10 k3, PS)	7%	
GATATACGATGGAACA (sugars k3 d10 k3, PS)	46%	
CTTGAGAGTGATTGCC (sugars k3 d10 k3, PS)	64%	

Sequence	target mRNA inhibition (1 µM)	other results
TCATAGTGGACTTCAT (sugars k3 d1 m1 d8 k3, PS)	44%	
TTCTAGGTCAGTAGAG (sugars k3 d10 k3, PS)	58%	
CAAGTAGGAGTAGATG (sugars k3 d10 k3, PS)	5%	
AACTTGATCTCTTAGC (sugars k3 d10 k3, PS)	64%	
ATTCTGTGGCATGGCT (sugars k3 d9 k3 e1, PS)	68%	
TACCAGAGCATTCATC (sugars k3 d10 k3, PS)	55%	
TCATTAAGCTTAGTAT (sugars k3 d10 k3, PS)	31%	
GTTTCTTATGTAATAG (sugars kkdddddddddkekek, PS)	21%	
GTACATGCCAAGCTTT (sugars k3 d10 k3, PS)	61%	
ATTTAGAATACGCTGA (sugars k3 d10 k3, PS)	19%	
TCCATGCAAAAGCATT (sugars k3 d10 k3, PS)	62%	
ATAGAGTCGGTCACCT (sugars k3 d1 m1 d8 k3, PS)	50%	
GTCGGTCACCTTTCAT (sugars k3 d10 k3, PS)	85%	target mRNA inhibition (0.02 µM): 16%; target mRNA inhibition (0.078 µM): 37%; target mRNA inhibition (0.313 µM): 57%; target mRNA inhibition (1.25 µM): 82%; target mRNA inhibition (5 µM): 90%
TTATAACTACAAGAGG (sugars k3 d1 m1 d8 k3, PS)	58%	
TCTCUTGACAATGGTT (sugars k3 d1 m1 d8 k3, PS)	62%	
CAACTTTTAGTCAGGT (sugars k3 d10 k3, PS)	66%	
CTTAGTACCAAGACAC (sugars k3 d10 k3, PS)	60%	
GGGAAAAAGTGTGTTC (sugars k3 d10 k3, PS)	20%	
GCATAAGAGATGAGTA (sugars k3 d10 k3, PS)	33%	
ACGATTGTTACATCAC (sugars k3 d10 k3, PS)	53%	
CTTTGAGACTCTTGTT (sugars k3 d9 k3 e1, PS)	57%	
ATGCTACTTGAACAGT (sugars kkdddddddddkekek, PS)	54%	
TGTTAGGACCCAGTCT (sugars k3 d10 k3, PS)	51%	
CTATCAGAACAGTTCA (sugars k3 d10 k3, PS)	48%	
TAAATTACTCCGTTCT (sugars k3 d10 k3, PS)	36%	
TGTCTAAACATCTCTG (sugars kkdddddddddkekek, PS)	59%	

Sequence	target mRNA inhibition (1 µM)	other results
CACTGTGACGATGTGG (sugars k3 d10 k3, PS)	10%	
CTGAAATTGATACACC (sugars k3 d9 k3 e1, PS)	75%	target mRNA inhibition (0.02 µM): 0%; target mRNA inhibition (0.078 µM): 17%; target mRNA inhibition (0.313 µM): 51%; target mRNA inhibition (1.25 µM): 61%; target mRNA inhibition (5 µM): 81%
CTTCTCTTGGGTCCAT (sugars k3 d10 k3, PS)	51%	
TATAGTTATCTTCTCA (sugars kkdddddddddkekek, PS)	45%	
GCTGTACAGTAGGCAG (sugars k3 d10 k3, PS)	66%	
GCATTGATTCGAAACT (sugars k3 d10 k3, PS)	66%	
GGGAGGTAGCTTTTGT (sugars k3 d9 k3 e1, PS)	40%	
CAATAGTACTATAGTA (sugars k3 d10 k3, PS)	14%	
CTGTAGGTTTTGCTTC (sugars k3 d10 k3, PS)	27%	
AAAAAAGCTTATCGAG (sugars k3 d10 k3, PS)	7%	
AAACATCTCTGGGACC (sugars kkdddddddddkekek, PS)	36%	
TAAACATCTCTGGGAC (sugars k3 d10 k3, PS)	51%	
AACCAATCCTCAGCTT (sugars k3 d10 k3, PS)	0%	
GGAGTATGACAACTGG (sugars k3 d10 k3, PS)	28%	
TACCTCTAAGTTAGCC (sugars k3 d10 k3, PS)	28%	
TGTCAGAGACTCTGTG (sugars k3 d10 k3, PS)	39%	
CGATAGATCTCTTCTC (sugars k3 d10 k3, PS)	15%	
CAAGGGAACACTGTCA (sugars k3 d10 k3, PS)	58%	
GTTTTTAAGAGGCATG (sugars k3 d10 k3, PS)	63%	
TGTTGACCTCAAATGT (sugars k3 d10 k3, PS)	14%	
GGTCCACTTTTGGTGG (sugars k3 d10 k3, PS)	13%	
ACTGACAACCCTTAAC (sugars k3 d10 k3, PS)	10%	
AATACGCTGAGAGTTA (sugars k3 d10 k3, PS)	48%	
AAGCATTGTTAGCTAA (sugars k3 d10 k3, PS)	11%	
CAGAAATTCACCTTGA (sugars k3 d10 k3, PS)	28%	
ACTCTATTGATTGGCT (sugars k3 d10 k3, PS)	57%	

Sequence	target mRNA inhibition (1 µM)	other results
CTTTAGTCAACAGTAC (sugars k3 d10 k3, PS)	12%	
ACAACTGGAGGTATGT (sugars k3 d10 k3, PS)	0%	
TAGCUTTTGTCCACCT (sugars k3 d1 m1 d8 k3, PS)	67% and 50%	target mRNA inhibition (0.02 µM): 8%; target mRNA inhibition (0.078 µM): 9%; target mRNA inhibition (0.313 µM): 26%; target mRNA inhibition (1.25 µM): 54%; target mRNA inhibition (5 µM): 78%
GAAACTCACTTCCTAC (sugars k3 d10 k3, PS)	56%	
AACATAGGCTTAGTGT (sugars k3 d10 k3, PS)	18%	
GTATAAATGGCAATTC (sugars k3 d10 k3, PS)	56%	
GTTTCTTATGTAATAG (sugars kkkddddkddddkkke, PS)	44%	
GATTGAGTTCTCCACT (sugars k3 d10 k3, PS)	45%	
GTAGCTTTTGTCCACC (sugars k3 d10 k3, PS)	63%	
CATTATTCACCACGAT (sugars k3 d10 k3, PS)	33%	
CTGTGTTAGCTTTAAT (sugars k3 d10 k3, PS)	67%	target mRNA inhibition (0.02 µM): 9%; target mRNA inhibition (0.078 µM): 0%; target mRNA inhibition (0.313 µM): 28%; target mRNA inhibition (1.25 µM): 77%; target mRNA inhibition (5 µM): 92%
TCAAATTAAGATGTCC (sugars k3 d10 k3, PS)	6%	
ATATUCTGTGGCATGG (sugars k3 d1 m1 d8 k3, PS)	63%	
GTAGCTTTTGTCCACC (sugars k3 d1 m1 d8 k3, PS)	64%	
AAACATCTCTGGGACC (sugars k3 d9 k3 e1, PS)	48%	
TAGTATAGTTATCTTC (sugars k3 d1 m1 d8 k3, PS)	13%	
GATCAAATGTATGTGC (sugars k3 d10 k3, PS)	25%	
TACCTTATTAATATCC (sugars k3 d10 k3, PS)	54%	
TTGAGAGAACTTATAC (sugars k3 d10 k3, PS)	21%	
AATACTAATGTCCAAG (sugars k3 d10 k3, PS)	65%	
CCTAGGGAGGAGGTAC (sugars k3 d10 k3, PS)	34%	
GAAGTATGTGAACTCC (sugars k3 d10 k3, PS)	56%	
AGAGAGTAATCAGTTT (sugars kkdddddddddkekek, PS)	52%	
